ChEMBL document CHEMBL4266002, “Acyloxybenzyl and Alkoxyalkyl Prodrugs of a Fosmidomycin Surrogate as Antimalarial and Antitubercular Agents” (ACS Med Chem Lett, 2018)

Tests used:
[1] = Selectivity index, ratio of IC50 for human MRC5 cells to IC50 for chloroquine-resistant Plasmodium falciparum K1 infected in human erythrocytes; type: toxicity, cell-based; conditions: read-out: Ratio IC50
Plasmodium falciparum = assay: Antiplasmodial activity against chloroquine-resistant Plasmodium falciparum K1 infected in human erythrocytes measured after 72 hrs Malstat/NBT reagent based assay; type: functional, organism-based; conditions: K1, 72 h
[2] = Selectivity index, ratio of IC50 for human MRC5 cells to IC50 for Mycobacterium tuberculosis H37Ra ATCC 25177; type: toxicity; conditions: read-out: Ratio IC50
[3] = Stability in human serum at 1 mM after 30 to 60 mins by UPLC method; type: ADME, cell-free; conditions: 1000 µM
[4] = system: Mycobacterium tuberculosis; assay: Antimicrobial activity against Mycobacterium tuberculosis H37Ra ATCC 25177 after 7 days by luminometric method; type: functional, organism-based; conditions: H37Ra ATCC 25177, 168 h
MRC5 = assay: Cytotoxicity against human MRC5 cells after 24 hrs by resazurin assay; type: cell-based; conditions: MRC5, 24 h
[5] = Half life in patient with malaria; type: ADME, organism-based; conditions: human, in vivo
[6] = Oral bioavailability in patient with malaria; type: ADME, organism-based; conditions: human, in vivo

## CN(O)C(=O)CCCP(=O)(OCOC(=O)C(C)(C)C)OCOC(=O)C(C)(C)C
[1]
  selectivity ratio: > 88
Plasmodium falciparum
  IC50: 0.73 µM
[2]
  selectivity ratio: > 1.4
[3]
  Stability: Stable
[4]
  IC50: 44.3 µM
MRC5
  IC50: > 64 µM

## CN(O)C(=O)CCCP(=O)(O)O
[4]
  IC50: > 64 µM

## CCCCCCCCCCCCOCCCOP(=O)(O)CCCC(=O)N(C)O
[1]
  selectivity ratio: 68
Plasmodium falciparum
  IC50: 0.82 µM
[4]
  IC50: > 64 µM
MRC5
  IC50: 55.9 µM

## CCCCCCCCCCCCCCCCOCCCOP(=O)(CCCC(=O)N(C)O)OCCCOCCCCCCCCCCCCCCCC
[1]
  selectivity ratio: > 1.5
Plasmodium falciparum
  IC50: 42 µM
[4]
  IC50: > 64 µM
MRC5
  IC50: > 64 µM

## CCCCOCCCOP(=O)(O)CCCC(=O)N(C)O
[1]
  selectivity ratio: > 4
Plasmodium falciparum
  IC50: 16 µM
[4]
  IC50: > 64 µM
MRC5
  IC50: > 64 µM

## CC(C)OC(=O)OCOP(=O)(CCCC(=O)N(C)O)OCOC(=O)OC(C)C
[1]
  selectivity ratio: 743
Plasmodium falciparum
  IC50: 0.08 µM
[3]
  Stability: Stable
[4]
  IC50: > 64 µM
MRC5
  IC50: 55.7 µM

## CN(O)C(=O)CCCP(=O)(OCc1ccc(OC(=O)c2ccccc2)cc1)OCc1ccc(OC(=O)c2ccccc2)cc1
[1]
  selectivity ratio: 20
Plasmodium falciparum
  IC50: 0.03 µM
[2]
  selectivity ratio: 1.5
[3]
  Stability: Stable
[4]
  IC50: 0.42 µM
MRC5
  IC50: 0.61 µM

## CCCCCCCCCCCCCCCCOCCCOP(=O)(O)CCCC(=O)N(C)O
[1]
  selectivity ratio: 26
Plasmodium falciparum
  IC50: 0.95 µM
[4]
  IC50: > 64 µM
MRC5
  IC50: 24.5 µM

## CC(C)C(=O)Oc1ccc(COP(=O)(CCCC(=O)N(C)O)OCc2ccc(OC(=O)C(C)C)cc2)cc1
[1]
  selectivity ratio: 7.3
Plasmodium falciparum
  IC50: 0.14 µM
[2]
  selectivity ratio: 1.6
[3]
  Stability: Stable
[4]
  IC50: 0.64 µM
MRC5
  IC50: 0.99 µM

## CCCCCCCCOCCCOP(=O)(O)CCCC(=O)N(C)O
[1]
  selectivity ratio: > 34
Plasmodium falciparum
  IC50: 1.9 µM
[4]
  IC50: > 64 µM
MRC5
  IC50: > 64 µM

## CC(=O)Oc1ccc(COP(=O)(CCCC(=O)N(C)O)OCc2ccc(OC(C)=O)cc2)cc1
[1]
  selectivity ratio: 32
Plasmodium falciparum
  IC50: 0.49 µM
[2]
  selectivity ratio: 0.8
[3]
  Stability: Stable
[4]
  IC50: 19.7 µM
MRC5
  IC50: 15.5 µM

## CN(O)C(=O)CCCP(=O)(OCc1ccc(OC(=O)C(C)(C)C)cc1)OCc1ccc(OC(=O)C(C)(C)C)cc1
[1]
  selectivity ratio: 6.1
Plasmodium falciparum
  IC50: 0.16 µM
[2]
  selectivity ratio: 2.3
[3]
  Stability: Stable
[4]
  IC50: 0.43 µM
MRC5
  IC50: 0.98 µM

## CCCCCCCCC(=O)Oc1ccc(COP(=O)(CCCC(=O)N(C)O)OCc2ccc(OC(=O)CCCCCCCC)cc2)cc1
[1]
  selectivity ratio: 42
Plasmodium falciparum
  IC50: 0.3 µM
[2]
  selectivity ratio: 7.6
[3]
  Stability: Stable
[4]
  IC50: 1.76 µM
MRC5
  IC50: 12.6 µM

## O=CN(O)CCCP(=O)([O-])O.[Na+] [FOSMIDOMYCIN SODIUM]
[5]
  half-life: 2 h
[6]
  bioavailability: 30%
[4]
  IC50: > 64 µM
MRC5
  IC50: > 64 µM

## CC(=O)N(O)CCCP(=O)(O)O [FR-900098]
[4]
  IC50: > 64 µM
